According to ChEMBL document CHEMBL2021797, “Synthesis and structure-activity relationship study of antimicrotubule agents phenylahistin derivatives with a didehydropiperazine-2,5-dione structure” (J Med Chem, 2012):

Assays:
HeLa [1] = experiment: Induction of cell cycle arrest in human HeLa cells assessed as accumulation at S phase at 30 nM after 18 hrs by propidium iodide based flow cytometric analysis (reference value: 39.9 %); format: functional
HT-29 = experiment: Cytotoxicity against human HT-29 cells after 48 hrs using resazurin by microplate fluorometer analysis; format: functional, cell-based; settings: HT-29, 48 h
HeLa [2] = experiment: Induction of cell cycle arrest in human HeLa cells assessed as accumulation at G2/M phase at 10 nM after 18 hrs by propidium iodide based flow cytometric analysis (reference value: 16.2 %); format: functional
HeLa [3] = experiment: Induction of cell cycle arrest in human HeLa cells assessed as accumulation at G2/M phase at 30 nM after 18 hrs by propidium iodide based flow cytometric analysis (reference value: 16.2 %); format: functional
[4] = Binding affinity to bovine tubulin after 1 hr by spectrofluorometric analysis; set-up: species or system Bos taurus
HeLa [5] = experiment: Induction of cell cycle arrest in human HeLa cells assessed as accumulation at G0/G1 phase at 30 nM after 18 hrs by propidium iodide based flow cytometric analysis (reference value: 43.9 %); format: functional
HeLa [6] = experiment: Induction of cell cycle arrest in human HeLa cells assessed as accumulation at G0/G1 phase at 10 nM after 18 hrs by propidium iodide based flow cytometric analysis (reference value: 43.9 %); format: functional
HeLa [7] = experiment: Induction of cell cycle arrest in human HeLa cells assessed as accumulation at S phase at 10 nM after 18 hrs by propidium iodide based flow cytometric analysis (reference value: 39.9 %); format: functional
DU-145 [8] = experiment: Antitumor activity against human DU145 cells xenografted in nu/nu mouse assessed as tumor growth inhibition at 7.5 mg/kg, ip administered on day 1, 3, 5, 8 and […] measured on day 40 relative to control; format: functional; settings: DU-145, ip, route intraperitoneal, read-out: TGI
HUVEC [9] = experiment: Cytotoxicity against HUVEC after 48 hrs using resazurin by microplate fluorometer analysis; format: cell-based; settings: Homo sapiens
HeLa [10] = experiment: Induction of cell cycle arrest in human HeLa cells assessed as accumulation at G2/M phase at 100 nM after 18 hrs by propidium iodide based flow cytometric analysis (reference value: 16.2 %); format: functional
Mus musculus = experiment: Toxicity in nu/nu mouse assessed as weight loss at 1.25 to 7.5 mg/kg, ip after 40 days; format: organism-based; settings: in vivo, 960 h
HeLa [11] = experiment: Induction of cell cycle arrest in human HeLa cells assessed as accumulation at S phase at 100 nM after 18 hrs by propidium iodide based flow cytometric analysis (reference value: 39.9 %); format: functional
DU-145 [12] = settings: Homo sapiens
HUVEC [13] = experiment: Induction of microtubule depolymerization in HUVEC after 30 mins by DAPI staining method; format: cell-based; settings: Homo sapiens
DU-145 [14] = experiment: Antitumor activity against human DU145 cells xenografted in nu/nu mouse assessed as tumor growth inhibition at […], ip administered on day 1, 3, 5, 8 and […] measured on day 40 relative to control; format: functional; settings: DU-145, ip, read-out: TGI
[15] = Inhibition of bovine brain tubulin polymerization by thermostatic spectrophotometer; set-up: species or system Bos taurus
HeLa [16] = experiment: Induction of cell cycle arrest in human HeLa cells assessed as accumulation at G0/G1 phase at 100 nM after 18 hrs by propidium iodide based flow cytometric analysis (reference value: 43.9 %); format: functional
DU-145 [17] = experiment: Antitumor activity against human DU145 cells xenografted in nu/nu mouse assessed as tumor growth inhibition at 3.75 mg/kg, ip administered on day 1, 3, 5, 8 and […] measured on day 40 relative to control; format: functional; settings: DU-145, ip, route intraperitoneal, read-out: TGI
HeLa [18] = experiment: Induction of cell cycle arrest in human HeLa cells assessed as accumulation at G2/M phase at 3 nM after 18 hrs by propidium iodide based flow cytometric analysis (reference value: 16.2 %); format: functional
HeLa [19] = experiment: Induction of cell cycle arrest in human HeLa cells assessed as accumulation at S phase at 3 nM after 18 hrs by propidium iodide based flow cytometric analysis (reference value: 39.9 %); format: functional
HeLa [20] = experiment: Induction of cell cycle arrest in human HeLa cells assessed as accumulation at G0/G1 phase at 3 nM after 18 hrs by propidium iodide based flow cytometric analysis (reference value: 43.9 %); format: functional

Structure (SMILES)	Activity (HeLa [1]) [%]	IC50 (HT-29) [nM]	Activity (HeLa [2]) [%]	Activity (HeLa [3]) [%]	Kd [4] [nM]	Activity (HeLa [5]) [%]	Activity (HeLa [6]) [%]	Activity (HeLa [7]) [%]	IC50 (HUVEC [9]) [nM]	ED100 (HUVEC [13]) [nM]	IC50 [15] [nM]	other results
COc1cc2c(c(OC)c1OC)-c1ccc(OC)c(=O)cc1[C@@H](NC(C)=O)CC2 [COLCHICINE]	8.9	16	21	89.9	[…]	1.3	47.5	31.5	–	–	–	–
CC(C)(C)c1[nH]cnc1/C=c1\[nH]c(=O)/c(=C/c2ccccc2)[nH]c1=O [PLINABULIN]	40.4	–	17.9	55.3	1000	4.2	44.6	37.5	11	3	1310	inhibition in vivo at 7.5 mg/kg (DU-145 [8]): 58.5%; Activity (HeLa [10]): 97.6%; Activity (Mus musculus): Non-toxic; Activity (HeLa [11]): 2.4%; TGI (DU-145 [12]): Dose-dependent effect; inhibition in vivo at […] (DU-145 [14]): 29%; Activity (HeLa [16]): 0%; inhibition in vivo at 3.75 mg/kg (DU-145 [17]): 38.6%
COc1cc(/C=c2\[nH]c(=O)/c(=C/c3nc[nH]c3C(C)(C)C)[nH]c2=O)cc(OC)c1	–	45.4	–	–	–	–	–	–	–	–	–	–
COc1ccc(/C=C\c2cc(OC)c(OC)c(OC)c2)cc1O [COMBRETASTATIN A4]	–	–	90.7	–	–	–	0.4	8.8	2.4	10	550	Activity (HeLa [18]): 37.4%; Activity (HeLa [19]): 28.1%; Activity (HeLa [20]): 34.6%
